According to patent US20190105367A1, “ANTIMICROBIAL 4-OXOQUINOLIZINES” (Emergent Product Development Gaithersburg Inc., priority 2011, published 2019):

What was measured:
S. aureus ATCC 25923 = test: MIC, selected panel of bacterial strains (Example 5); assay type: cell-based, Staphylococcus aureus
[1] = tested on: S. aureus ATCC 43300 (MRSA, FQ-S); test: as above; assay type: cell-based, Staphylococcus aureus; conditions: MRSA, FQ-S
E. coli ATCC 25922 = test: as above; assay type: cell-based, Escherichia coli
B. thailandensis E264 = test: microbe, parasite or virus in culture; assay type: cell-based, Burkholderia thailandensis
P. aeruginosa ATCC 27853 = test: MIC, selected panel of bacterial strains (Example 5); assay type: cell-based, Pseudomonas aeruginosa
A. baumannii ATCC 19606 = test: as above; assay type: cell-based, Acinetobacter baumannii
[2] = tested on: S. aureus BAA-1556 (USA300-Type) (MRSA, FQ-R); test: as above; assay type: cell-based, Staphylococcus aureus; conditions: MRSA, FQ-R
[3] = tested on: K. pneumoniae BAA-2146 (NDM-1, FQ-R); test: MIC on K. pneumoniae (Example 5); assay type: cell-based, Klebsiella pneumoniae; conditions: quinolone-resistant strain
Procedure: (§1) MIC Values for all compounds were measured against a selection of bacterial strains. The MICs of 4-oxoquinolizines against a selection of Gram-negative and Gram-positive bacterial strains are shown in Table 13 in comparison with known antibiotics.

K. pneumoniae ATCC 33495 = test: MIC on K. pneumoniae (Example 5); assay type: cell-based, Klebsiella pneumoniae; conditions: sensitive strain
Procedure: as §1

In the case of `Cc1c(-c2ccc(CN)cc2)c(F)cn2c(=O)c(C(=O)[O-])cc(C3CC3)c12.[K+]` [Compound 6K salt], the “MICs against Gram positive bacteria S. aureus ATCC 25923” value (S. aureus ATCC 25923) is reported as 0.125 µg/mL, the “MICs against Gram positive bacteria S. aureus ATCC 43300 (MRSA, FQ-S)” value [1] is reported as 0.064 µg/mL and the “MICs against Gram negative bacteria E. coli ATCC 25922” value (E. coli ATCC 25922) is reported as 0.064 to 0.125 µg/mL. For the same compound, the “MICs against Gram negative bacteria B. thailandensis E264” value (B. thailandensis E264) was 4 µg/mL, the “MICs against Gram negative bacteria P. aeruginosa ATCC 27853” value (P. aeruginosa ATCC 27853) was 4 to 8 µg/mL and the “MICs against Gram negative bacteria A. baumannii ATCC 19606” value (A. baumannii ATCC 19606) was 1 µg/mL. For the same compound, the “MICs against Gram positive bacteria S. aureus BAA-1556 (USA300-Type) (MRSA, FQ-R)” value [2] was 1 µg/mL.
With `Cc1c(-c2ccc(N)nc2)ccn2c(=O)c(C(=O)[O-])cc(C3CC3)c12.[K+]` [Compound 33K salt, potassium 8-(6-amino-pyridin-3-yl)-1-cyclopropyl-9-methyl-4-oxo-4H-quinolizine-3-carboxylate] the “MICs K. pneumoniae BAA-2146 (NDM-1, FQ-R)” value [3] was >8 µg/mL and the “MICs K. pneumoniae ATCC 33495” value (K. pneumoniae ATCC 33495) was 0.064 µg/mL.
